According to US20200239530A1, “COMPOUNDS AND METHODS OF MODULATING PROTEIN DEGRADATION” (Vividion Therapeutics, Inc., priority 2017, published 2020):

Tests used:
Experiment in all cases: Cysteine liganding, probe competition
Format in all cases: binding
[1] = molecular target: T1, UBE4A Ubiquitin conjugation factor E4 A (Homo sapiens, UniProt Q14139); settings: UBE4A Res# 79, uniprot Q14139
T1 construct: Cells were resuspended in cold PBS on ice and sonicated with a probe sonicator to achieve lysis; endogenous in cells
Procedure, shortened: (§1)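 Lysates from probe-sonicated cells in PBS (5 mg/ml proteome) were exposed to compound for 1 hr at 25° C, then labelled with desthiobiotin iodoacetamide probe (10 mM stock) for 1 hr at 25° C. Probe-tagged peptides were streptavidin-enriched after trypsin digestion.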

[2] = molecular target: T2, ZC3HC1 Nuclear-interacting partner of ALK (Homo sapiens, UniProt Q86WB0); settings: ZC3HC1 Res# 406, uniprot Q86WB0
T2 construct: Cells were resuspended in cold PBS on ice and sonicated with a probe sonicator to achieve lysis; endogenous in cells
Procedure, shortened: as §1

FDFT1 Squalene synthase = molecular target: T3, FDFT1 Squalene synthase (Homo sapiens, UniProt P37268)
T3 construct: 200 μL of lysate containing 5 mg/ml proteome was treated with 2 μL of 100× compound stock; endogenous in cells
T3 sequence (P37268 1-417): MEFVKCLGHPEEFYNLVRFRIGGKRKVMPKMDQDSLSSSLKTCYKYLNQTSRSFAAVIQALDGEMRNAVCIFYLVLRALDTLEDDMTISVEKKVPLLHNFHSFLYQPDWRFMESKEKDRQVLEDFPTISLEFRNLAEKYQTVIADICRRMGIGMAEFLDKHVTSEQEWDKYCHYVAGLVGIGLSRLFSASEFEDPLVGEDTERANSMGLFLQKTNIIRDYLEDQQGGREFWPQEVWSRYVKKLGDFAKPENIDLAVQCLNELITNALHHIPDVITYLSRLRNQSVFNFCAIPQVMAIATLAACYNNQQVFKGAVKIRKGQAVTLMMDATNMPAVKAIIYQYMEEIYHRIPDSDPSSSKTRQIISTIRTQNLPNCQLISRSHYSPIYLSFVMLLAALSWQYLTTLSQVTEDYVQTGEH
Procedure, shortened: as §1

[3] = molecular target: T4, AMMECR1L AMMECR1-like protein (Homo sapiens, UniProt Q6DCA0)
T4 construct: 200 μL of lysate containing 5 mg/ml proteome was treated with 2 μL of 100× compound stock; endogenous in cells
Procedure, shortened: as §1

[4] = molecular target: T5, CTSC Dipeptidyl peptidase 1 (Homo sapiens, UniProt P53634)
T5 construct: 200 μL of lysate containing 5 mg/ml proteome was treated with 2 μL of 100× compound stock; endogenous in cells
Procedure, shortened: as §1

[5] = molecular target: T6, RNF2 E3 ubiquitin-protein ligase RING2 (Homo sapiens, UniProt Q99496)
T6 construct: Cells were resuspended in cold PBS on ice and sonicated with a probe sonicator to achieve lysis; endogenous in cells
T6 sequence (Q99496 1-336): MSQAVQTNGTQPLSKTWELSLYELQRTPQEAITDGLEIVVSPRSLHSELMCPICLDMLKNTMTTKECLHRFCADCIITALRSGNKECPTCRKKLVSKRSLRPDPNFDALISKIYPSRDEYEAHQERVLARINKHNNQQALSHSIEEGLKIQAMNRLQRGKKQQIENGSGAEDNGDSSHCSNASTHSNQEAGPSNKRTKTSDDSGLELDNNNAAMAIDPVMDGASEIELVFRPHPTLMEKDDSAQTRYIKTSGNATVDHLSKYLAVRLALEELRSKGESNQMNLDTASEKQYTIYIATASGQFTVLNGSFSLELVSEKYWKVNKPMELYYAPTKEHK
Procedure, shortened: as §1

T5 sequence (P53634 25-463): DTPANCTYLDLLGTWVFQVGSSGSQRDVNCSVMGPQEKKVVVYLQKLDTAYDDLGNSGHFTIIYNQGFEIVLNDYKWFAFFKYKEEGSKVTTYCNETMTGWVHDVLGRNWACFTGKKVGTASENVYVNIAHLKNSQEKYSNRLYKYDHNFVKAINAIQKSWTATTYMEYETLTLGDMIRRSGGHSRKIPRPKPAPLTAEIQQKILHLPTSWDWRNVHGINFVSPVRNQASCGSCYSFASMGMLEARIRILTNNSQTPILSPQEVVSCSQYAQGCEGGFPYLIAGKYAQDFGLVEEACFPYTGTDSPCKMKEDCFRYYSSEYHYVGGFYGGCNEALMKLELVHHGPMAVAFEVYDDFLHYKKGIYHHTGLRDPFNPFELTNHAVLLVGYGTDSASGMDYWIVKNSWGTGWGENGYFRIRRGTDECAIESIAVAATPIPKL
T4 sequence (Q6DCA0 whole entry): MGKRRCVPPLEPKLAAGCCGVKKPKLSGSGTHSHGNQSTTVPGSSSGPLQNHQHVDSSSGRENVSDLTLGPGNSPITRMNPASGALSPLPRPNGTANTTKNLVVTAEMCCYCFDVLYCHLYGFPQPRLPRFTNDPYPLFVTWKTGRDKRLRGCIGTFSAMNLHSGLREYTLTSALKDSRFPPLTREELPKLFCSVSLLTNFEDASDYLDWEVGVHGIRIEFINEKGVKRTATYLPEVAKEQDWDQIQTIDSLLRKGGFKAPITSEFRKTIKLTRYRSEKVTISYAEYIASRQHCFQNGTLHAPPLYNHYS
T2 sequence (Q86WB0 whole entry): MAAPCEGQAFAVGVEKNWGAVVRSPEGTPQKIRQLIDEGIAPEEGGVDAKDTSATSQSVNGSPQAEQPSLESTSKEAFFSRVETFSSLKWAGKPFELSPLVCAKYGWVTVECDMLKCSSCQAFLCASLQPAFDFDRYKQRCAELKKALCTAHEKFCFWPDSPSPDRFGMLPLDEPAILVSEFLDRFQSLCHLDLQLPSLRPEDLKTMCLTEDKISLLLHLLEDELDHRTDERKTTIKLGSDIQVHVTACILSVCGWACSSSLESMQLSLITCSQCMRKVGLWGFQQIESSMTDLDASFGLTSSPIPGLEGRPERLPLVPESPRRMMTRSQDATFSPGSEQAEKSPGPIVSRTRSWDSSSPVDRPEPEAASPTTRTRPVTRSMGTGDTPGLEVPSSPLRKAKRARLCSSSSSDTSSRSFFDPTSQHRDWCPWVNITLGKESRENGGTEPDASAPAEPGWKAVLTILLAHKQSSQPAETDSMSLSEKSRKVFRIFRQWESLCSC
T1 sequence (Q14139 whole entry): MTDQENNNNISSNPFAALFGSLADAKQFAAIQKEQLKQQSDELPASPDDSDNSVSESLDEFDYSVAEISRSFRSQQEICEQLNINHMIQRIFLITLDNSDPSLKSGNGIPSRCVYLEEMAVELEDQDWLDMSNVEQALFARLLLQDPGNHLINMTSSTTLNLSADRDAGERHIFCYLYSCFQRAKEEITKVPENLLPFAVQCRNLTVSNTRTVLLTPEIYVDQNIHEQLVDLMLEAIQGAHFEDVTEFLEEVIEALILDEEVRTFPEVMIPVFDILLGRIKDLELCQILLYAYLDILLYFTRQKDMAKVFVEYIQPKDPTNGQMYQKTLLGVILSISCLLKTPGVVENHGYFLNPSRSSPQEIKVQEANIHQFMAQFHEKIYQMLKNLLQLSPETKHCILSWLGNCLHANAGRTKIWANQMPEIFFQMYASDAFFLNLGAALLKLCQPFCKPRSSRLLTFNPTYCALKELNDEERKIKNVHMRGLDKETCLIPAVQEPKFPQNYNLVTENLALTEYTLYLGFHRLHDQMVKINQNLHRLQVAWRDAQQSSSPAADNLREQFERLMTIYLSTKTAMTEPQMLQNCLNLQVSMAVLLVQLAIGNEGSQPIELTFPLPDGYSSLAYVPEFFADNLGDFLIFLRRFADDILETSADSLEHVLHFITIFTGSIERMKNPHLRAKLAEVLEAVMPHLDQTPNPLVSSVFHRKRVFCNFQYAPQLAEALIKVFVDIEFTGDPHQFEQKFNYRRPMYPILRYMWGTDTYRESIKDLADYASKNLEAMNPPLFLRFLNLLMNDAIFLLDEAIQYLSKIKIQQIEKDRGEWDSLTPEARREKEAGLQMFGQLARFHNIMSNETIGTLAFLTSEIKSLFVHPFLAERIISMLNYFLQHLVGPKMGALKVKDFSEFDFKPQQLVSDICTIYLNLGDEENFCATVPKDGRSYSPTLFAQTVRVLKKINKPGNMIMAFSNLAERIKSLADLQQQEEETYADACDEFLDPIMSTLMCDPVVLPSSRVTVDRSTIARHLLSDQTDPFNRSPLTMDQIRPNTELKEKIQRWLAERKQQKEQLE

COc1ccc2c(c1)CCCN2C(=O)CCl [KB02]
Liganded [1]: YES
Liganded [2]: YES

O=C(CCl)Nc1cc(C(F)(F)F)cc(C(F)(F)F)c1 [KBO3]
Liganded (FDFT1 Squalene synthase; FDFT1 Res# 6, uniprot P37268): YES
100 Max (FDFT1 Squalene synthase; uniprot P37268): 59.08
100 ave (FDFT1 Squalene synthase; uniprot P37268): 37.7
500 Max (FDFT1 Squalene synthase; uniprot P37268): 82.93
500 ave (FDFT1 Squalene synthase; uniprot P37268): 82.93
Liganded ([3]; AMMECR1L Res# 153, uniprot Q6DCA0): YES
100 Max ([3]; uniprot Q6DCA0): 91.46
100 ave ([3]; uniprot Q6DCA0): 91.46
500 Max ([3]; uniprot Q6DCA0): 85.74
500 ave ([3]; uniprot Q6DCA0): 85.74
Liganded ([4]; CTSC Res# 258, uniprot P53634): YES
100 Max ([4]; uniprot P53634): 76.05
100 ave ([4]; uniprot P53634): 76.05
500 Max ([4]; uniprot P53634): 95.44
500 ave ([4]; uniprot P53634): 95.44
Liganded ([5]; RNF2 Res# 54, uniprot Q99496): YES
100 Max ([5]; uniprot Q99496): 18.1
100 ave ([5]; uniprot Q99496): 0.5
500 Max ([5]; uniprot Q99496): 76.8
500 ave ([5]; uniprot Q99496): 76.8
